Experimental data from patent US20150296783A1, “SYNERGISTIC COMBINATION OF A ZOXAMIDE COMPOUND AND TERBUTRYN FOR DRY FILM PROTECTION” (ROHM AND HAAS COMPANY, priority 2012, published 2015).

Legend:
Chlorella sp. ATCC 7516 = test: Algal efficacy testing of dry paint film (modified ASTM 5589), Chlorella; format: cell-based; details: 3 weeks; for Total conc (concentration chosen as minimum inhibitory concentration for SI): dry paint film, pass level ≧75% inhibition, total biocide in liquid paint
Protocol: (§1) Slurries containing 33% antimicrobial active ingredient (Zoxamide) and 45% antimicrobial ingredient Terbutryn were post added to a white, acrylic/silicone based outdoor paint free of biocides to give a total active ingredient concentration of […] respectively. These paints were then diluted with an antimicrobial free acrylic/silicone based paint and mixed to prepare targeted concentrations of antimicrobial compounds for the testing. The total biocides concentrations tested were 125, 250, 500, 1000, 2000 and 5000 ppm. After biocides addition or dilution, the paints were mixed 90 seconds with the horse power shaker (AXEL 75M3372/Agitateur SO-10MI) until uniformity was achieved. Paints containing different antimicrobial compounds at the same levels were mixed together in order to obtain the desired ratio of antimicrobial compounds. After one day, the paints were applied to Schleicher & Schuell filter paper at 280 μm wet film thickness and dried for 3 days at room temperature avoiding direct exposure to sunlight. Square discs (1.6 cm×1.6 cm) were cut out from each panel and were used as the substrate for algal efficacy tests. This sample size allowed for an agar border when the sample disc was placed into the well of the test plate.
(§2) Algal efficacy was tested according to modified ASTM 5589 which is a standard accelerated test method for determining resistance of various coatings (including paints) to algal defacement. To accommodate for high-throughput screening, this method was scaled down from petri dishes to 6-well plates. Bold Modified Basal Freshwater Nutrient Solution was used as growth medium. A single coated filter paper coupon was placed with a pair of sterile forceps at the center of the agar plug (on top) with the painted surface facing upwards. Algal inoculums were prepared by mixing equal concentrations (1×10^6 cfu/ml) and equal volumes of exponentially growing algae cultures.
(§3) Each well that contains a tested coupon was inoculated with 1750 μl of algal suspensions (1×10^6 cfu/ml) making sure that the whole surface (paint film as well as the agar surrounding it) was evenly covered. The plates were incubated at room temp (21° C.-25° C.) with cyclic exposure to light and dark phases, for a period of three weeks.
(§4) At the end of the three week incubation period, the samples were scored for percent inhibition regarding visible algal growth compared to the blank sample (0% inhibition).
(§5) The SI is calculated based on F .C. Kull et.
(§6) The minimal targeted inhibition was set at 75%, meaning a coupon with at least 75% algal growth inhibition was considered as a pass.

[1] = tested on: Stichococcus bacillaris SAG 379-1a / CCAP 379/1a; test: Algal efficacy testing of dry paint film (modified ASTM 5589), Stichococcus; format: cell-based; details: 3 weeks; for inhibition at 5000 ppm: Stichococcus bacillaris, 504 h, total conc 5000 ppm, visible algal growth vs blank; for Total conc (concentration chosen as minimum inhibitory concentration for SI): dry paint film, pass level ≧75% inhibition, total biocide in liquid paint
Protocol: as §1, §2, §3, §4, §5, §6

| Compound | inhibition at 2000 ppm (Chlorella sp. ATCC 7516; 504 h, total conc 2000 ppm, visible algal growth vs blank) [%] | Total conc (concentration chosen as minimum inhibitory concentration for SI) (Chlorella sp. ATCC 7516) [ppm] | inhibition at 5000 ppm [1] [%] | Total conc (concentration chosen as minimum inhibitory concentration for SI) [1] [ppm] | inhibition at 5000 ppm (Chlorella sp. ATCC 7516; 504 h, total conc 5000 ppm, visible algal growth vs blank) [%] |
| --- | --- | --- | --- | --- | --- |
| CCNc1nc(NC(C)(C)C)nc(SC)n1 [Terbutryn, N^2-tert-butyl-N^4-ethyl-6-methylthio-1,3,5-triazine-2,4-diamine] | 85 | 2000 | 80 | 5000 |  |
| CCC(C)(NC(=O)c1cc(Cl)c(C)c(Cl)c1)C(=O)CCl (centres unmarked) [Zoxamide, 3,5-Dichloro-N-(3-chloro-1-ethyl-1-methyl-2-oxopropyl)-4-methylbenzamide] |  | 5000 | 45 | 5000 | 60 |
